According to patent US6599917B1, “Quinuclidine compounds and drugs containing the same as the active ingredient” (priority 1999, dated 2003):

These compounds were tested against T1, squalene synthesizing enzyme (Rattus norvegicus, UniProt Q02769) (assay: Measurement of squalene synthesizing enzyme inhibitive activity by using a rat liver microsome). Settings: [3H]-farnesylpyrophosphoric acid.
T1 construct: The liver was excised from a male Spraugue-Dawly rat; from tissue; host or cells: liver microsome fraction of male Sprague-Dawley rat (8 to 9 weeks)
T1 sequence (Q02769 1-416): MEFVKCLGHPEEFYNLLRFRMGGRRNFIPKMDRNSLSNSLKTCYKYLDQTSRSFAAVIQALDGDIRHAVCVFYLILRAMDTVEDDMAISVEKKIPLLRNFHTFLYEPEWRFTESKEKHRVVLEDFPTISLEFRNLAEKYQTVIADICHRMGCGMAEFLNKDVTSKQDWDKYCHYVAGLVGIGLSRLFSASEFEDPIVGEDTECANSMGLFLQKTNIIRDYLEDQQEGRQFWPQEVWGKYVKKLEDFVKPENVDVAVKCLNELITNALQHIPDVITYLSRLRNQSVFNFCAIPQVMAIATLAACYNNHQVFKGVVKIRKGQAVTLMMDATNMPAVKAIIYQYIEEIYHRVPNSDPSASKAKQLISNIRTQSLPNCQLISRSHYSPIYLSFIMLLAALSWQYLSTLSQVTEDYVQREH
Type: biochemical
Method: Measurement of Squalene Synthesizing Enzyme Inhibitive Activity by Using a Rat Liver Microsome
(I) The reaction was run on a scale of 500 μ1. 200 µl of a solution containing 125 mM tris-hydrochloric acid (pH: 7.3), 2.5 mM magnesium chloride, 5 mM potassium fluoride and 10 mM reduction type nicotinamidoadenine dinucleotide phosphoric acid, 100 µl of the specimen solution with a 5-fold concentration, 100 µl of distilled water and 50 µl of 0.4 to 1 mg/ml rat liver microsome prepared by the following method were mixed.
(II) The above mixture was pre-incubated at 37° C. for 10 minutes and thereafter, 50 µl of 100 μM [^3H]-farnesylpyrophosphoric acid (30 mCi/mmol, NEN) was added to the mixture to start a reaction. The reaction was continued at 37° C. for 10 minutes. 1 ml of ethanol was added to the resulting mixture to terminate the reaction and then 1 ml of distilled water and 3 ml of petroleum ether were added to the reaction solution, which was then shaken for 30 minutes. The water phase was separated from the oil phase, the water phase was frozen at −70° C. in dry ice/methanol and the radiative activity of the organic phase was measured using a liquid scintillator. Or the organic phase was evaporated to dryness using nitrogen gas and the residue was dissolved as a marker in 25 µl of chloroform containing squalene, farnesol and cholesterol. This sample was spotted on a TCL plate (Merck) and developed using heptane for 15 to 20 minutes. A band of squalene was cut from the plate to measure the radiative activity by using a liquid scintillation counter. The data was expressed by a concentration (IC50) at which 50% of the radiative activity of a control group was inhibited.
Method of the Preparation of a Rat Liver Microsome
The following operations were all carried out on ice and the centrifugation was performed at 4° C. The liver was excised from a male Spraugue-Dawly rat (hereinafter referred to as SD rat) (8 to 9 weeks age) and perfused with 1.15% potassium chloride to remove the blood. Then, the liver was minced using a forceps and the minced liver was homogenized using a Teflon homogenizer. The resulting sample was centrifuged at 16000×g twice for 15 minutes. The supernatant was further centrifuged at 105000×g for 60 minutes. The obtained deposit was determined as a microsome fraction, which was then suspended in a 25 mM tris-hydrochloric acid solution. The concentration of protein was measured quantitatively by a Bradford method and the concentration of protein was adjusted to 20 mg/ml by using the same solution. The resulting solution was stored at […].

Q: For “3-[4-Benzyl-2-(3-pyridyl)-5-pyridyl]ethynyl-3-quinuclidinol [Example 18]”, which IC50 is on record?
A: Its IC50 is 25 nM.

Q: With `OC1(C#Cc2cnc(-c3ccc4c(c3)OCO4)cc2Cc2ccccc2)CN2CCC1CC2` (stereo not drawn) [Example 1, 3-[4-Benzyl-2-(3,4-methylenedioxyphenyl)-5-pyridyl]ethynyl-3-quinuclidinol] as the compound, how does the IC50 read?
A: The IC50 was 10 nM.

Q: How did the IC50 turn out when `OC1(C#Cc2cnc(-c3ccccn3)cc2Cc2ccccc2)CN2CCC1CC2` (stereo not drawn) [Example 2, 3-[4-Benzyl-2-(2-pyridyl)-5-pyridyl]ethynyl-3-quinuclidinol] was run?
A: The IC50 was 20 nM.

Q: With `COC1CCN(c2ccc(C#CC3(O)CN4CCC3CC4)c(Cc3ccccc3)n2)CC1` (stereo not drawn) [Example 9, 3-[2-Benzyl-6-(4-methoxypiperidino)-3-pyridyl)ethynyl-3-quinuclidinol] as the compound, how does the IC50 read?
A: Its IC50 is 34 nM.

Q: `CO[C@@H]1CN(c2ccc(C#C[C@@]3(O)CN4CCC3CC4)c(Cc3ccccc3)n2)C[C@H]1O` [Example 10, (3R)-3-[2-Benzyl-6-[(3R,4R)-3-hydroxy-4-methoxypyrrolidine-1-yl]-3-pyridyl)ethynyl-3-quinuclidinol] was tested. Which IC50 did it give?
A: Its IC50 is 2 nM.

Q: Which IC50 does the source give for `OC1(C#Cc2cnc(-c3ccc4c(c3)OCO4)nc2Cc2ccccc2)CN2CCC1CC2` (stereo not drawn) [Example 19, 3-[4-Benzyl-2-(3,4-methylenedioxyphenyl)-5-pyrimidyl]ethynyl-3-quinuclidinol] here?
A: The IC50 was 10 nM.

Q: Which IC50 does the source give for `CO[C@@H]1CN(c2ccc(C#C[C@@]3(O)CN4CCC3CC4)c(Cc3ccccc3)n2)C[C@H]1OC` [Example 104, (3R)-3-[2-Benzyl-6-[(3R,4R)-3,4-dimethoxypyrrolidine-1-yl)-3-pyridyl]ethynyl-3-quinuclidinol] here?
A: Its IC50 is 6.7 nM.

Q: `O[C@]1(C#Cc2cc(Cl)c(N3CCC4(C3)OCCO4)nc2Cc2ccccc2)CN2CCC1CC2` [Example 119, (3R)-3-[2-Benzyl-5-chloro-6-(3,3-ethylenedioxypyrrolidine-1-yl)-3-pyridyl]ethynyl-3-quinuclidinol] was tested. Which IC50 did it give?
A: The IC50 was 3.9 nM.

Q: Which IC50 does the source give for `O=C1[C@H](O)CCN1c1ccc(C#C[C@@]2(O)CN3CCC2CC3)c(Cc2ccccc2)n1` [Example 142, (3R)-3-[2-Benzyl-6-[(3R)-3-hydroxy-2-pyrrolidinone-1-yl]-3-pyridyl]ethynyl-3-quinuclidinol] here?
A: Its IC50 is 5 nM.

Q: Which IC50 does the source give for `CO[C@@H]1CCN(c2ccc(C#C[C@@]3(O)CN4CCC3CC4)c(Cc3ccccc3)n2)C1=O` [Example 144, (3R)-3-[2-Benzyl-6-[(3R)-3-methoxy-2-pyrrolidinone-1-yl]-3-pyridyl]ethynyl-3-quinuclidinol] here?
A: Its IC50 is 2.6 nM.

Q: For `O[C@]1(C#Cc2cnc(-c3ccc4c(c3)OCO4)cc2Cc2ccccc2)CN2CCC1CC2` [Example 180, (3R)-3-[4-Benzyl-2-(3,4-methylenedioxyphenyl)-5-pyridyl]ethynyl-3-quinuclidinol], which IC50 is on record?
A: The IC50 was 6.3 nM.

These compounds were tested on cholesterol biosynthesis (assay: Measurement of cholesterol biosynthesis inhibitive activity in a rat). Settings: 2 h; male SD rat, oral, dose 2 mg/kg, inhibition rate to control group.
Type: in vivo
Method: Measurement of Cholesterol Biosynthesis Inhibitive Activity in a Rat
(I) An SPF grade male SD rat (4 weeks age, SLC) was bred for more than one week in a day-night-reversal room and subjected to an experiment made in the daytime. The compound dissolved in a 2% Tween 80 solution was administered (5 ml/kg) to the rat using an oral sonde. After one hour, a [1-^14C]Acetic acid, sodium salt (1.67-2.22 GBq/mmol, 37 MBq/ml, NEN) prepared by diluting to 1.85 MBq/ml by using physiological saline was intraabdominally administered (300 μ1/animal). After one hour, the rat was anesthetized by diethyl ether to carry out exsanguination from the aorta abdominalis. The collected blood was centrifuged at 3000 rpm for 10 minutes to prepare blood plasma.
(II) 1 ml of 4N KOH and 1 ml of ethanol were added to 2 ml of the blood plasma, which was then incubated at 65° C. for one hour and there after, 3 ml of petroleum ether was added. The plasma was shaken for 30 minutes. After the water phase was separated from the organic phase by centrifugation, it was frozen at −80° C. and the radiative activity of the organic phase was measured using a liquid scintillation counter. Or the organic phase was evaporated to dryness using nitrogen gas and the residue was dissolved as a marker in 25 µl of chloroform containing squalene, farnesol and cholesterol. This sample was applied to a TCL plate (Merck) and developed using toluene and isopropyl ether (1:1) for 15 to 20 minutes. A band of cholesterol was cut from the plate to measure the radiative activity by using a liquid scintillation counter. The cholesterol biosynthesis inhibition activity was expressed by an inhibition rate (%) to a control group.

Q: For `CO[C@@H]1CN(c2ccc(C#C[C@@]3(O)CN4CCC3CC4)c(Cc3ccccc3)n2)C[C@H]1OC` [Example 104, (3R)-3-[2-Benzyl-6-[(3R,4R)-3,4-dimethoxypyrrolidine-1-yl)-3-pyridyl]ethynyl-3-quinuclidinol], which inhibition in vivo at 2 mg/kg is on record?
A: The inhibition in vivo at 2 mg/kg was 88%.

Same assay, conditions: 2 h; male SD rat, oral, dose 3 mg/kg, inhibition rate to control group

Q: With `COCCOc1cc(Cc2ccccc2)c(C#CC2(O)CN3CCC2CC3)cn1` (stereo not drawn) [Example 6, 3-[4-Benzyl-2-(2-methoxyethoxy)-5-pyridyl]ethynyl-3-quinuclidinol] as the compound, how does the inhibition in vivo at 3 mg/kg read?
A: Its inhibition in vivo at 3 mg/kg is 73%.

Q: How did the inhibition in vivo at 3 mg/kg turn out when `COCCCNc1ccc(C#CC2(O)CN3CCC2CC3)c(Cc2ccccc2)n1` (stereo not drawn) [Example 11, 3-[2-Benzyl-6-(3-methoxypropylamino)-3-pyridyl)ethynyl-3-quinuclidinol] was run?
A: The inhibition in vivo at 3 mg/kg was 72%.

Q: For `COCCOc1ccc(C#CC2(O)CN3CCC2CC3)c(Cc2ccccc2)n1` (stereo not drawn) [Example 12, 3-[2-Benzyl-6-(2-methoxyethyloxy)-3-pyridyl)ethynyl-3-quinuclidinol], which inhibition in vivo at 3 mg/kg is on record?
A: Its inhibition in vivo at 3 mg/kg is 78%.

Q: `COCCCOc1ccc(C#CC2(O)CN3CCC2CC3)c(Cc2ccccc2)n1` (stereo not drawn) [Example 13, 3-[2-Benzyl-6-(3-methoxypropyloxy)-3-pyridyl]ethynyl-3-quinuclidinol] was tested. Which inhibition in vivo at 3 mg/kg did it give?
A: Its inhibition in vivo at 3 mg/kg is 87%.

Q: How did the inhibition in vivo at 3 mg/kg turn out when `CO[C@@H]1CN(c2ccc(C#C[C@@]3(O)CN4CCC3CC4)c(Cc3ccccc3)n2)C(=O)[C@@H]1OC` [Example 123, (3R)-3-[2-Benzyl-6-[(3R,4R)-3,4-dimethoxy-2-pyrrolidinone-1-yl]-3-pyridyl]ethynyl-3-quinuclidinol] was run?
A: Its inhibition in vivo at 3 mg/kg is 86%.

Q: For `O=C1[C@H](O)CCN1c1ccc(C#C[C@@]2(O)CN3CCC2CC3)c(Cc2ccccc2)n1` [Example 142, (3R)-3-[2-Benzyl-6-[(3R)-3-hydroxy-2-pyrrolidinone-1-yl]-3-pyridyl]ethynyl-3-quinuclidinol], which inhibition in vivo at 3 mg/kg is on record?
A: Its inhibition in vivo at 3 mg/kg is 82%.

Q: Which inhibition in vivo at 3 mg/kg does the source give for `COCCOc1ccc(C#C[C@@]2(O)CN3CCC2CC3)c(Cc2ccccc2)n1` [Example 147, (3R)-3-[2-Benzyl-6-(2-methoxyethyl)oxy-3-pyridyl]ethynyl-3-quinuclidinol] here?
A: Its inhibition in vivo at 3 mg/kg is 87%.

Same assay, conditions: male SD rat, oral, dose 3 mg/kg, inhibition rate to control group

Q: Which “Cholesterol biosynthesis inhibitive activity inhibition (%)” value does the source give for `COC(=O)CCC(=O)OCCCOc1ccc(C#CC2(O)CN3CCC2CC3)c(Cc2ccccc2)n1` (stereo not drawn) [Example 168, 3-[2-Benzyl-6-[3-(3-methoxycarbonylpropanoyloxy)propyl]oxy-3-pyridyl]ethynyl-3-quinclidinol] here?
A: Its value is 89%.

Q: For `C[C@H](NC(=O)OC(C)(C)C)C(=O)OCCCOc1ccc(C#CC2(O)CN3CCC2CC3)c(Cc2ccccc2)n1` (stereo partly drawn) [Example 169, 3-[2-Benzyl-6-[3-[N-(tert-butoxycarbonyl)aranyloxy]propyl]oxy-3-pyridyl]ethynyl-3-quinuclidinol], which “Cholesterol biosynthesis inhibitive activity inhibition (%)” value is on record?
A: Its value is 92%.
